Experimental data from the CheMixHub viscosity set.
± gives the uncertainty stated by the source.

Test: xn = mol fraction of the nth substance listed

CCC(C)=O + CCCCCCO
viscosity [mPa·s], 100 kPa
Conditions	x1 = 0.0791	x1 = 0.1639	x1 = 0.2389	x1 = 0.3481	x1 = 0.4401	x1 = 0.5609	x1 = 0.6516	x1 = 0.7391	x1 = 0.8511	x1 = 0.9382
293.15 K	3.8 ± 0.38	2.9 ± 0.3	2.29 ± 0.23	1.69 ± 0.17	1.3 ± 0.13	0.93 ± 0.09	0.75 ± 0.08	0.57 ± 0.06	0.41 ± 0.04	0.4 ± 0.04
303.15 K	2.95 ± 0.3	2.28 ± 0.23	1.87 ± 0.19	1.42 ± 0.14	1.09 ± 0.11	0.81 ± 0.08	0.7 ± 0.07	0.58 ± 0.06	0.47 ± 0.05	0.41 ± 0.04
313.15 K	2.28 ± 0.23	1.8 ± 0.18	1.49 ± 0.15	1.15 ± 0.12	0.92 ± 0.09	0.72 ± 0.07	0.6 ± 0.06	0.51 ± 0.05	0.42 ± 0.04	0.37 ± 0.04
323.15 K	1.8 ± 0.18	1.46 ± 0.15	1.21 ± 0.12	0.96 ± 0.1	0.79 ± 0.08	0.62 ± 0.06	0.52 ± 0.05	0.45 ± 0.05	0.37 ± 0.04	0.34 ± 0.03

CCCCCCOC(C)=O + CCCCCCO
viscosity [mPa·s], 101.33 kPa
Conditions	x1 = 0.0998	x1 = 0.2013	x1 = 0.3012	x1 = 0.4056	x1 = 0.4937	x1 = 0.6002	x1 = 0.7021	x1 = 0.8045	x1 = 0.9018
293.15 K	4.012 ± 0.051	3.281 ± 0.044	2.721 ± 0.038	2.266 ± 0.033	1.964 ± 0.03	1.677 ± 0.027	1.464 ± 0.025	1.299 ± 0.023	1.176 ± 0.022
303.15 K	3.073 ± 0.041	2.502 ± 0.035	2.065 ± 0.031	1.71 ± 0.027	1.474 ± 0.025	1.249 ± 0.023	1.083 ± 0.021	0.954 ± 0.02	0.858 ± 0.019
313.15 K	2.301 ± 0.033	1.899 ± 0.029	1.584 ± 0.026	1.332 ± 0.024	1.164 ± 0.022	1.005 ± 0.02	0.887 ± 0.019	0.795 ± 0.018	0.726 ± 0.017
